Experimental data taken from US20210355121A1, “FUSED TRICYCLIC KRAS INHIBITORS” (Incyte Corporation, priority 2020, published 2021).

Legend:
KRAS G12V = KRAS G12V (Homo sapiens, UniProt P01116, G12V); assay: KRAS G12V GDP-GTP exchange assay (bodipy-GDP for GppNHp, with SOS1); type: biochemical; details: 2.5 nM bodipy loaded KRAS G12V, 3 hours after GppNHp-SOS1; read-out: G12V_exchange (KRAS_G12V exchange assay IC50)
Method: (§1) The inhibitor potency of the exemplified compounds was determined in a fluorescence based guanine nucleotide exchange assay, which measures the exchange of bodipy-GDP (fluorescently labeled GDP) for GppNHp (Non-hydrolyzable GTP analog) to generate the active state of KRAS in the presence of SOS1 (guanine nucleotide exchange factor). Inhibitors were serially diluted in DMSO and a volume of 0.1 μL was transferred to the wells of a black low volume 384-well plate. 5 μL/well volume of bodipy-loaded KRAS G12C diluted to 5 nM in assay buffer (25 mM Hepes pH 7.5, 50 mM NaCl, 10 mM MgCl2 and 0.01% Brij-35) was added to the plate and pre-incubated with inhibitor for 2 hours at ambient temperature. Appropriate controls (enzyme with no inhibitor or with a G12C inhibitor (AMG-510)) were included on the plate. The exchange was initiated by the addition of a 5 μL/well volume containing 1 mM GppNHp and 300 nM SOS1 in assay buffer. The 10 μL/well reaction concentration of the bodipy-loaded KRAS G12C, GppNHp, and SOS1 were 2.5 nM, 500 uM, and 150 nM, respectively. The reaction plates were incubated at ambient temperature for 2 hours, a time estimated for complete GDP-GTP exchange in the absence of inhibitor. For the KRAS G12D and G12V mutants, similar guanine nucleotide exchange assays were used with 2.5 nM as final concentration for the bodipy loaded KRAS proteins and with 4 hours and 3 hours incubation after adding GppNHp-SOS1 mixture for G12D and G12V respectively. A cyclic peptide described to selectively bind G12D mutant (Sakamoto et al., BBRC 484.3 (2017), 605-611) or internal compounds with confirmed binding were used as positive controls in the assay plates. Fluorescence intensities were measured on a PheraStar plate reader instrument (BMG Labtech) with excitation at 485 nm and emission at 520 nm.
(§2) Either GraphPad prism or XLfit was used to analyze the data. The IC50 values were derived by fitting the data to a four parameter logistic equation producing a sigmoidal dose-response curve with a variable Hill coefficient. Prism equation: Y=Bottom+(Top−Bottom)/(1+10^((Log IC50−X)*Hill slope)); XLfit equation: Y=(A+((B−A)/(1+((X/C)^D)))) where X is the logarithm of inhibitor concentration and Y is the response.

KRAS G12D = KRAS G12D (Homo sapiens, UniProt P01116, G12D); assay: KRAS G12D GDP-GTP exchange assay (bodipy-GDP for GppNHp, with SOS1); type: biochemical; details: 2.5 nM bodipy loaded KRAS G12D, 4 hours after GppNHp-SOS1; read-out: G12D_exchange (KRAS_G12D exchange assay IC50)
Chain of KRAS G12D (P01116 1-188 isoform P01116-2 G12D): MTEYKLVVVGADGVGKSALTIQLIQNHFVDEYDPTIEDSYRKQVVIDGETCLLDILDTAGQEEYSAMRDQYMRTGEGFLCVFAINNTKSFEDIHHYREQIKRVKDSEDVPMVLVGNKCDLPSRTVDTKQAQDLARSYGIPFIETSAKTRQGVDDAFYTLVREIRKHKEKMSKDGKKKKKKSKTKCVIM
Method: as §1, §2

Chain of KRAS G12V (P01116 1-188 isoform P01116-2 G12V): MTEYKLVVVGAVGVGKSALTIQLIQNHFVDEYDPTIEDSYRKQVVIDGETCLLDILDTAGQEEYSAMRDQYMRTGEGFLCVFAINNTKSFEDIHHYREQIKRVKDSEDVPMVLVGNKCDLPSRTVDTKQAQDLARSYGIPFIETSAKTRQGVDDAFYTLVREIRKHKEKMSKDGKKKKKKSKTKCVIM

IC50 (KRAS G12V) [nM]	IC50 (KRAS G12D) [nM]	SMILES
100 to 1000	≤ 100	CN1CCC[C@H]1COc1nc2c(F)c(-c3cc(O)cc4ccccc34)c(CCC#N)cc2c2c1c(C(=O)NCCO)cn2C1C2CNC1C2 (stereo partly drawn) [Example 44, 1-(2-azabicyclo[2.1.1]hexan-5-yl)-8-(2-cyanoethyl)-6-fluoro-N-(2-hydroxyethyl)-7-(3-hydroxynaphthalen-1-yl)-4-(((S)-1-methylpyrrolidin-2-yl)methoxy)-1H-pyrrolo[3,2-c]quinoline-3-carboxamide]
100 to 1000	≤ 100	CN1CCC[C@H]1COc1nc2c(F)c(-c3cc(O)cc4ccccc34)c(CCC#N)cc2c2c1c(C(=O)NCc1ccccc1)cn2C1C2CNC1C2 (stereo partly drawn) [Example 45, N-Benzyl-1-(2-azabicyclo[2.1.1]hexan-5-yl)-8-(2-cyanoethyl)-6-fluoro-7-(3-hydroxynaphthalen-1-yl)-4-(((S)-1-methylpyrrolidin-2-yl)methoxy)-1H-pyrrolo[3,2-c]quinoline-3-carboxamide]
100 to 1000	≤ 100	CN1CCC[C@H]1COc1nc2c(F)c(-c3cc(O)cc4ccccc34)c(CCC#N)cc2c2c1c(CO)cn2C1C2CNC1C2 (stereo partly drawn) [Example 46, 3-(1-(2-Azabicyclo[2.1.1]hexan-5-yl)-6-fluoro-3-(hydroxymethyl)-7-(3-hydroxynaphthalen-1-yl)-4-(((S)-1-methylpyrrolidin-2-yl)methoxy)-1H-pyrrolo[3,2-c]quinolin-8-yl)propanenitrile]
≤ 100	≤ 100	CCOc1nc2c(F)c(-c3cc(O)cc4ccccc34)c(CCC#N)cc2c2c1cc(CCC(=O)N(C)C)n2[C@H]1[C@H]2CN[C@@H]1C2 [Example 48, 3-(1-((1R,4R,5S)-2-azabicyclo[2.1.1]hexan-5-yl)-8-(2-cyanoethyl)-4-ethoxy-6-fluoro-7-(3-hydroxynaphthalen-1-yl)-1H-pyrrolo[3,2-c]quinolin-2-yl)-N,N-dimethylpropanamide]
100 to 1000	100 to 1000	COC(=O)CCc1c(N2CC(N(C)C)C2)c2c(OC)nc3c(F)c(-c4cc(O)cc5ccccc45)c(CCC#N)cc3c2n1[C@H]1[C@H]2CN[C@@H]1C2 [Example 49, methyl 3-(1-((1R,4R,5S)-2-azabicyclo[2.1.1]hexan-5-yl)-8-(2-cyanoethyl)-3-(3-(dimethylamino)azetidin-1-yl)-6-fluoro-7-(3-hydroxynaphthalen-1-yl)-4-methoxy-1H-pyrrolo[3,2-c]quinolin-2-yl)propanoate]
≤ 100	≤ 100	CN1CCC[C@H]1COc1nc2c(F)c(-c3cccc4ccc(F)cc34)c(CCC#N)cc2c2c1cc(CCC(=O)N1CCC1)n2C1C2CNC1C2 (stereo partly drawn) [Example 50, 3-(2-(3-(azetidin-1-yl)-3-oxopropyl)-1-(2-azabicyclo[2.1.1]hexan-5-yl)-6-fluoro-7-(7-fluoronaphthalen-1-yl)-4-(((S)-1-methylpyrrolidin-2-yl)methoxy)-1H-pyrrolo[3,2-c]quinolin-8-yl)propanenitrile]

Continued, molecule first:

SMILES	IC50 (KRAS G12V) [nM]	IC50 (KRAS G12D) [nM]
CN1CCC[C@H]1COc1nc2c(F)c(-c3cc(O)cc4ccccc34)c(CCC#N)cc2c2c1c(-c1ccccc1)cn2C1C2CNC1C2 (stereo partly drawn) [Example 34, 3-(1-(2-azabicyclo[2.1.1]hexan-5-yl)-6-fluoro-7-(3-hydroxynaphthalen-1-yl)-4-(((S)-1-methylpyrrolidin-2-yl)methoxy)-3-phenyl-1H-pyrrolo[3,2-c]quinolin-8-yl)propanenitrile]	1000 to 5000	100 to 1000
CN1CCC[C@H]1COc1nc2c(F)c(-c3cc(O)cc4ccccc34)c(CCC#N)cc2c2c1c(-c1cccnc1)cn2C1C2CNC1C2 (stereo partly drawn) [Example 35, 3-(1-(2-azabicyclo[2.1.1]hexan-5-yl)-6-fluoro-7-(3-hydroxynaphthalen-1-yl)-4-(((S)-1-methylpyrrolidin-2-yl)methoxy)-3-(pyridin-3-yl)-1H-pyrrolo[3,2-c]quinolin-8-yl)propanenitrile]	100 to 1000	≤ 100
Cc1ncc(-c2cn(C3C4CNC3C4)c3c2c(OC[C@@H]2CCCN2C)nc2c(F)c(-c4cc(O)cc5ccccc45)c(CCC#N)cc23)o1 (stereo partly drawn) [Example 36, 3-(1-(2-azabicyclo[2.1.1]hexan-5-yl)-6-fluoro-7-(3-hydroxynaphthalen-1-yl)-3-(2-methyloxazol-5-yl)-4-(((S)-1-methylpyrrolidin-2-yl)methoxy)-1H-pyrrolo[3,2-c]quinolin-8-yl)propanenitrile]	100 to 1000	≤ 100
Cc1ncc(-c2cn(C3C4CNC3C4)c3c2c(OC[C@@H]2CCCN2C)nc2c(F)c(-c4cc(O)cc5ccccc45)c(CCC#N)cc23)s1 (stereo partly drawn) [Example 37, 3-(1-(2-azabicyclo[2.1.1]hexan-5-yl)-6-fluoro-7-(3-hydroxynaphthalen-1-yl)-4-(((S)-1-methylpyrrolidin-2-yl)methoxy)-3-(2-methylthiazol-5-yl)-1H-pyrrolo[3,2-c]quinolin-8-yl)propanenitrile]	100 to 1000	≤ 100
CN1CCC[C@H]1COc1nc2c(F)c(-c3cc(O)cc4ccccc34)c(CCC#N)cc2c2c1c(-c1cnn(C)c1)cn2C1C2CNC1C2 (stereo partly drawn) [Example 38, 3-(1-(2-azabicyclo[2.1.1]hexan-5-yl)-6-fluoro-7-(3-hydroxynaphthalen-1-yl)-3-(1-methyl-1H-pyrazol-4-yl)-4-(((S)-1-methylpyrrolidin-2-yl)methoxy)-1H-pyrrolo[3,2-c]quinolin-8-yl)propanenitrile]	100 to 1000	≤ 100
CN1CCC[C@H]1COc1nc2c(F)c(-c3cc(O)cc4ccccc34)c(CCC#N)cc2c2c1cc(-c1ccn(C)n1)n2C1C2CNC1C2 (stereo partly drawn) [Example 39, 3-(1-(2-azabicyclo[2.1.1]hexan-5-yl)-6-fluoro-7-(3-hydroxynaphthalen-1-yl)-2-(1-methyl-1H-pyrazol-3-yl)-4-(((S)-1-methylpyrrolidin-2-yl)methoxy)-1H-pyrrolo[3,2-c]quinolin-8-yl)propanenitrile]	≤ 100	≤ 100
CN1CCC[C@H]1COc1nc2c(F)c(-c3cc(O)cc4ccccc34)c(CCC#N)cc2c2c1cc(Cc1ccccc1)n2C1C2CNC1C2 (stereo partly drawn) [Example 40, 3-(2-benzyl-1-(2-azabicyclo[2.1.1]hexan-5-yl)-6-fluoro-7-(3-hydroxynaphthalen-1-yl)-4-(((S)-1-methylpyrrolidin-2-yl)methoxy)-1H-pyrrolo[3,2-c]quinolin-8-yl)propanenitrile]	1000 to 5000	100 to 1000
CN1CCC[C@H]1COc1nc2c(F)c(-c3cc(O)cc4ccccc34)c(CCC#N)cc2c2c1c(-c1cn[nH]c1)cn2C1C2CNC1C2 (stereo partly drawn) [Example 41, 3-(1-(2-azabicyclo[2.1.1]hexan-5-yl)-6-fluoro-7-(3-hydroxynaphthalen-1-yl)-4-(((S)-1-methylpyrrolidin-2-yl)methoxy)-3-(1H-pyrazol-4-yl)-1H-pyrrolo[3,2-c]quinolin-8-yl)propanenitrile]	≤ 100	≤ 100
CN1CCC[C@H]1COc1nc2c(F)c(-c3cc(O)cc4ccccc34)c(CCC#N)cc2c2c1c(-c1ccc(=O)[nH]c1)cn2C1C2CNC1C2 (stereo partly drawn) [Example 42, 3-(1-(2-azabicyclo[2.1.1]hexan-5-yl)-6-fluoro-7-(3-hydroxynaphthalen-1-yl)-4-(((S)-1-methylpyrrolidin-2-yl)methoxy)-3-(6-oxo-1,6-dihydropyridin-3-yl)-1H-pyrrolo[3,2-c]quinolin-8-yl)propanenitrile]	100 to 1000	≤ 100
CN1CCC[C@H]1COc1nc2c(F)c(-c3cc(O)cc4ccccc34)c(CCC#N)cc2c2c1c(Cl)cn2C1C2CNC1C2 (stereo partly drawn) [Example 43, 3-(1-(2-azabicyclo[2.1.1]hexan-5-yl)-3-chloro-6-fluoro-7-(3-hydroxynaphthalen-1-yl)-4-(((S)-1-methylpyrrolidin-2-yl)methoxy)-1H-pyrrolo[3,2-c]quinolin-8-yl)propanenitrile]	100 to 1000	≤ 100
